Results taken from US12648951B2, “Methods of treating castration-resistant prostate cancer with glucocorticoid receptor antagonists, androgen deprivation therapy and anti-androgen receptor therapy” (University of Chicago, priority 2012, dated 2026).
Where two headings read alike, the source gives them in different places.

Key:
SGK1 = assay: Expression of SGK1 in prostate cancer cell lines; type: cell-based, human; conditions: MDV3100, and addition of Dex
Source text: (§1) GR Antagonist Studies. […]. SGK1-FLAG or vector was stably expressed and cellular viability, secreted PSA, and protein lysates were collected.

LAPC4 cell line = assay: GR expression following MDV3100 treatment, LAPC4; type: cell-based, human
[1] = system: castration-resistant prostate cancer patients who have received prior docetaxel; conditions: cited from earlier work
[2] = system: LNCaP cells engineered to express elevated levels of AR; conditions: cited from earlier work
breast cancer cell = conditions: cited from earlier work
[3] = system: LAPC4 prostate cancer cell line; assay: Cell survival of LAPC4 cells grown with MDV3100, R1881, Dex, Mif, GSK650394; type: cell-based, human
Source text: as §1

[4] = system: metastatic castration-resistant prostate cancer patients; conditions: cited from earlier work
CWR-22RV1 cell line = assay: GR expression following MDV3100 treatment, CWR-22RV1; type: cell-based, human
[5] = system: prostate specific antigen serum levels; conditions: after a month of taking the medicine; cited from earlier work
CRPC cell lines [6] = assay: GR expression level in CRPC cell lines; type: cell-based, human; conditions: addition of MDV3100, within 3-7 days
[7] = system: CWR-22RV1 (22RV1) prostate cancer cell line; assay: Cell survival of CWR-22RV1 cells grown with MDV3100, R1881, Dex, GSK650394; type: cell-based, human
Source text: as §1

CRPC cell lines [8] = assay: Proliferation / growth of castrate-resistant prostate cancer cell lines; type: cell-based, human
Source text: as §1

[9] = cited from earlier work
[10] = at 9 months; cited from earlier work
advanced prostate cancer = conditions: cited from earlier work

## CNC(=O)c1ccc(N2C(=S)N(c3ccc(C#N)c(C(F)(F)F)c3)C(=O)C2(C)C)cc1F [MDV3100]
SGK1
  Expression of SGK1: reduced
LAPC4 cell line
  GR expression: increased
[1]; AFFIRM interim analysis
  lived longer than those taking placebo: approximately 5 months
[1]; in vivo
  median survival after progression on MDV3100: under 1 year
[1]; phase III, reported in 2012
  survival advantage: 4-5 month
[2]
  expression of androgen dependent genes PSA and TMPRSS2: down regulated
Breast cancer cell
  breast cancer cell growth: inhibits breast cancer cell growth
[3]; LAPC4
  reduction in cell death compared to R1881+Dex control: 26%
[3]; LAPC4, MDV3100 with vs without Dex
  cell survival compared to R1881 control: 47%
[3]; SGK1-Flag over-expressing LAPC4 cells
  survival under MDV3100 treatment: 61%
[3]; vector control LAPC4 cells
  survival under MDV3100 treatment: 24%
[4]; chemo-naive patients
  Median time to radiographic progression: 56 weeks
  patients with PSA level decreased more than 50 percent: 40/65
[4]; chemotherapy-treated patients
  patients with PSA level decreased more than 50 percent: 38/75
[4]; post-chemotherapy population
  Median time to radiographic progression: 25 weeks
CWR-22RV1 cell line
  GR expression: increased
[5]
  decrease in prostate specific antigen serum levels: ≤ 89%
CRPC cell lines [6]
  GR expression level: significantly increases
[7]; MDV3100 with vs without Dex
  cell survival: 51%

## O=C(O)c1ccc(-c2c[nH]c3ncc(-c4ccccc4)cc23)cc1C1CCCC1 [GSK650394]
[3]; LAPC4, GSK650394 added to MDV3100+Dex
  % survival relative to R1881+Dex control: 19%
[7]; results similar to LAPC4
  cell survival following treatment with the SGK1 inhibitor: impaired

## CC#C[C@]1(O)CC[C@H]2[C@@H]3CCC4=CC(=O)CCC4=C3[C@@H](c3ccc(N(C)C)cc3)C[C@@]21C [Mif, mifepristone]
[3]; LAPC4, addition of Mif alone
  change in survival compared to R1881+Dex control: no change in survival
CRPC cell lines [8]
  proliferation with addition of a GR inhibitor to MDV3100 under GR activation: restoring the decrease in proliferation

## CC(C)C(=O)Nc1ccc([N+](=O)[O-])c(C(F)(F)F)c1 [flutamide]
[9]; doses of 125 mg/day or less
  hepatic impairment: No cases of hepatic impairment
[9]; warnings from patients using 750 mg daily
  hepatotoxicity: fatal hepatotoxicity has been reported

## CCNC(=O)[C@@H]1CCCN1C(=O)[C@H](CCCNC(=N)N)NC(=O)[C@H](CC(C)C)NC(=O)[C@@H](CC(C)C)NC(=O)[C@H](Cc1ccc(O)cc1)NC(=O)[C@H](CO)NC(=O)[C@H](Cc1c[nH]c2ccccc12)NC(=O)[C@H](Cc1c[nH]cn1)NC(=O)[C@@H]1CCC(=O)N1 [leuprolide]
[10]
  Overall survival: 90.5%
Advanced prostate cancer; human, in vivo
  cardiovascular toxicity: lower incidence of cardiovascular toxicity
Advanced prostate cancer; monthly depot
  reducing serum testosterone to castrate levels: equivalent to 3 mg of DES

## CC(C)C[C@H](NC(=O)[C@@H](Cc1c[nH]c2ccccc12)NC(=O)[C@H](Cc1ccc(O)cc1)NC(=O)[C@H](CO)NC(=O)[C@H](Cc1c[nH]c2ccccc12)NC(=O)[C@H](Cc1c[nH]cn1)NC(=O)[C@@H]1CCC(=O)N1)C(=O)N[C@@H](CCCNC(=N)N)C(=O)N1CCC[C@H]1C(=O)NCC(N)=O [triptorelin]
[10]
  Overall survival: 97%
